For this series the following is noted: 80° C. for nine days.
Consider `NCCNCCNCCN.O=C(O)/C=C/C(=O)O.O=C(O)/C=C/C(=O)O.O=C(O)/C=C/C(=O)O.O=C(O)/C=C/C(=O)O` [Fumaric, triethylenetetramine tetrafumarate], for which the “Changes in IR, 1H-NMR and DSC after heat exposure” value was “no changes”.
As to `NCCNCCNCCN.O=C(O)/C=C\C(=O)O.O=C(O)/C=C\C(=O)O.O=C(O)/C=C\C(=O)O.O=C(O)/C=C\C(=O)O` [Maleic, triethylenetetramine tetramaleate], the “Changes in IR, 1H-NMR and DSC after heat exposure” value is reported as “no changes”.
The value for `NCCNCCNCCN.O=C(O)CCC(=O)O.O=C(O)CCC(=O)O` [Succinic, triethylenetetramine disuccinate] was “no changes”.

The record behind these values is US11795150B2, “Synthesis of triethylenetetramines” (Philera New Zealand Limited, priority 2004, dated 2023).
